For one series, the system named is bone marrow stem cells. The experiment in a line: bone marrow stem cell proliferation (XTT). Format: cell-based, C57/BL6 mice. Particulars: for Max amplitude: 7 days, XTT 492 nm; for Min amplitude: blank ± 3× standard deviation; for Max concentration: concentration at maximum amplitude; for EC50 conc: concentration corresponding to 50% of maximum amplitude; for Min concentration: lowest concentration inducing a significant proliferation. The text has this: 6-week old male C57/BL6 mice are killed by CO2 inhalation. The hip, femur, tibia and hind leg bones are removed. The marrow is extracted from the bone lumen by injecting Dulbecco's Modified Eagle Medium (DH medium) from the end portions which had been excised. The stem cells are washed and suspended again in DH medium supplemented with 20% foetal calf serum (FCS) The cell concentration is adjusted to 500000 cells/ml.
Products previously dissolved in DH medium supplemented with 20% FCS, amino acids and antibiotics are serially diluted directly into a microtiter plate. The products are tested in triplicate and each microtiter plate includes a negative control containing plain medium. The final volume in each well is 100 μl.
100 μl of the cell suspension are added to diluted solutions of products and the cells are incubated for 7 days in an incubator at 37° C., under 8% CO2 and a moisture saturated atmosphere. Cell proliferation is determined by measuring the […] of a chromogenic substrate XTT (2,3-bis[2-methoxy-4-nitro-5-sulphophenyl]-2H-tetrazolium-5-carboxanilide) in mitochondria of viable cells.
At the end of the incubation period, 50 μl of the XTT substrate solution (1 mg/ml XTT+0.008 mg/ml phenazine methosulfate) are added to each well. After an 8 hour incubation period at 37° C. under 8% CO2 in a moisture saturated incubator, the microtiter plates are read with a spectrophotometer at 492 nm against a reference sample at 690 nm.
Results are expressed as mean value±standard deviation and plotted as a dose versus response curve. Values for a negative control composed of DH medium (mean±standard deviation) are also graphically shown.
From this dose versus response curve, 3 curve variables are computed:
Max: maximum curve amplitude and corresponding concentration
EC50: concentration corresponding to 50% of maximum amplitude
Min: lowest concentration inducing a significant proliferation corresponding to the blank±3× standard deviation value
Concentration values corresponding to EC50 and Min are determined from line segments joining different points on the curve.
If the curve has no plateau phase but an ascending configuration for the highest concentration being tested, a “>” sign is shown before Max and EC50 values.
A general note: Formazan colour is commonly taken as a measure of viable cells.

The subject of series [1] is predendritic cells (DC-6). The experiment in a line: dendritic cell differentiation test: FITC-Dextran take-up. Format: cell-based, human. Particulars: for Dextran % CD: products redissolved in pyrogen-free water, % of dendritic cells; for Dextran Fluorescence: mean fluorescence value; for concentration inducing differentiation of DC-6 cells into DC-9 cells: summary of phagocytosis and marker data. As for the experimental part: The ability of products of the invention to induce maturation of predendritic cells into dendritic cells was assessed. The following parameters were measured: FITC-Dextran conjugate take-up and expression of CD83, CD86 surface markers.
Mononucleated cells of peripheral blood are isolated from buffy coats of healthy donors. Purified monocytes by adherence selection are resuspended in RPMI-1640 medium containing 10% of foetal calf serum (FCS), GM-CSF and IL-4 (10 ng/ml) at a density of 1×10^6 cells/ml. Cells are divided into Petri Dishes (10×10^6 cells per dish) and cultured for 6 days with a change to fresh medium after 3 days. Cells thus obtained are called predendritic cells (DC-6). Maturation of predendritic cells into mature dendritic cells is achieved by incubating cells with diluted solutions of the products or LPS (positive control) for 3 more days (see product section below). At day 9 (DC-9), cells are harvested and analyzed for different indicators of dendritic cell maturation: assessment of CD83, CD86 surface marker expression as well as of their ability to take up FITC-Dextran conjugate. All these parameters are analyzed by an EPICS-XL-MCL model FACS (Coulter Immunology, Hialeah, […]).
Expression of surface markers is given as % of mean fluorescence of LPS-activated cells (positive control); FITC-Dextran conjugate take-up rate is calculated based on take-up of cells maintained in basic medium and is expressed in %.
Solutions are incubated at 37° C. for 20 minutes, subjected to vigorous stirring during 3 minutes and then diluted to 100 μg/ml in RPMI-1640 culture medium and used in diluted state at concentrations ranging from 10 μg/ml to 0.03 μg/ml. Reference Product: E. coli lipopolysaccharide (LPS, DIFCO, Detroit, Mich., U.S.A.), as a 5 mg/ml stock solution in PBS. An intermediate 100 μg/ml solution is prepared in RPMI 1640 culture medium. Concentrations of dilute solutions being tested range from 1 μg/ml to 0.03 μg/ml.
In another series of experiments, all acyl dipeptide-like compounds were freeze-dried and directly redissolved into pyrogen-free water. Different products as well as LPS control are tested at a concentration of 10 μg/ml. Results are given as % of dendritic cells and mean fluorescence value for dextran phagocytosis or CD86 surface marker expression.
Immature dendritic cells (DC-6) resulting from monocyte differentiation, through the joint action of GM-CSF and IL-4, are able to incorporate FITC-Dextran conjugate. During the maturation process, cells lose their ability to incorporate the FITC-Dextran conjugate. Assays are conducted upon reaching the DC-9 differentiation stage.

Series [2] deals with Limulus Amoebocyte Lysate.

Values after ≈ are worked out from the molar mass of the structure shown.

In the series on bone marrow stem cells, `CCCCCCCCCCCC(=O)O[C@H](CCCCCCCCCCC)CC(=O)N[C@H](CC(=O)O)C(=O)NCCC[C@H](COC(=O)CCC(=O)O)NC(=O)C[C@H](O)CCCCCCCCCCC` [OM-197-MC-Succ] displayed a Max amplitude of 2.16 O.D, a Min amplitude of 0.80 O.D, a Max concentration of 50 µg/mL and an EC50 conc of 24.7 µg/mL (≈ 25.5 µM). In the series with bone marrow stem cells, this molecule displayed a Min concentration of 2.95 µg/mL. For the same molecule, in series [1] (10 μg/ml), the “Dextran % CD” value is 35.5% and the “Dextran Fluorescence” value is recorded as 3.0. In series [2], the “LAL EU/mg of product” value was 5.3 EU/mg of product and the “LAL ng of LPS equivalent per mg of product” value (shortened to “LAL ng … per mg of product”) is on record as 0.42 ng of LPS equivalent per mg of product.
In the case of `CCCCCCCCCCCC(=O)O[C@H](CCCCCCCCCCC)CC(=O)N[C@H](CC(=O)O)C(=O)NCCC[C@H](CO)NC(=O)C[C@H](O)CCCCCCCCCCC` [OM-197-MC, N—[(R)-3-dodecanoyloxytetradecanoyl]-D-aspartic acid, α-N-{(4R)-5-hydroxy-4[(R)-3-hydroxytetradecanoylamino]-pentyl}amide], in the series on bone marrow stem cells, the Max amplitude is reported as 1.75 O.D, the Min amplitude is reported as 0.80 O.D, the Max concentration was 64 µg/mL and the EC50 conc is 19.4 µg/mL (≈ 22.3 µM). Further, in the series on bone marrow stem cells, the Min concentration turned out to be 1.25 µg/mL. Also, the “decrease of phagocytic capacity” value in series [1] (10 μg/ml) is listed as 22%. In addition, the “effect on phagocytosis” value in series [1] (concentrations lower than 3 μg/ml) was “no effect on phagocytosis”. The “concentration inducing differentiation of DC-6 cells into DC-9 cells” value in series [1] is recorded as “greater than 1 μg/ml”. Moreover, in series [2], the “LAL EU/mg of product” value is given as 88.6 EU/mg of product and the “LAL ng … per mg of product” value was 7.4 ng of LPS equivalent per mg of product.
In the series on bone marrow stem cells, `CCCCCCCCCCCC(=O)O[C@H](CCCCCCCCCCC)CC(=O)NC(CCOP(=O)(O)O)C(=O)NCCCC(COC(=O)CCCCC(O)CO)NC(=O)C[C@H](O)CCCCCCCCCCC` (stereo partly drawn) [OM-197-FV6, 3-[(R)-dodecanoyloxytetradecanoylamino]-4oxo-5-aza-9-[(R)-3-hydroxytetradecanoylamino]-decan-1,10-diol 1-dihydrogenphate 10-(6,7-dihydroxyheptanoate)] gave a Max amplitude of 1.52 O.D, a Min amplitude of 0.80 O.D, a Max concentration of 50 µg/mL and an EC50 conc of 5.7 µg/mL (≈ 5.29 µM). In addition, in the series with bone marrow stem cells, the Min concentration is 1.60 µg/mL. In series [1] (10 μg/ml), the “Dextran % CD” value turned out to be 84.5% and the “Dextran Fluorescence” value came to 6.3. The “effect on maturation of dendritic cells” value in series [1] (0.03 to 10 μg/ml) is recorded as “apparently no effect”. The “concentration inducing differentiation of DC-6 cells into DC-9 cells” value in series [1] is listed as “totally lack such an activity”. In addition, in series [2], the “LAL EU/mg of product” value was 540 EU/mg of product and the “LAL ng … per mg of product” value was 43 ng of LPS equivalent per mg of product.
With `CCCCCCCCCCCC(=O)O[C@H](CCCCCCCCCCC)CC(=O)N[C@H](CC(=O)N[C@@H](CC(=O)O)C(=O)O)C(=O)NCCC[C@H](COC(=O)CCCCCN)NC(=O)C[C@H](O)CCCCCCCCCCC` [OM-197-Asp-AC, N—[(R)-3-dodecanoyloxytetradecanoyl]-D-aspartic acid, α-N-{(4R)-5-(6-aminohexanoyloxy)-4-[(R)-3-hydroxytetradecanoyl-amino]-pentyl}amide β-N-[(1S)-1,2-dicarboxyethyl]Amide], in the series on bone marrow stem cells, the Max amplitude is 1.33 O.D, the Min amplitude is reported as 0.80 O.D, the Max concentration was 50 µg/mL and the EC50 conc is 2.8 µg/mL (≈ 2.55 µM). In the series with bone marrow stem cells, this molecule gave a Min concentration of 1.27 µg/mL. In series [1] (10 μg/ml), the “Dextran % CD” value was 22.0% and the “Dextran Fluorescence” value amounted to 22.1. In series [2], the “LAL EU/mg of product” value was 2307 EU/mg of product and the “LAL ng … per mg of product” value is reported as 184.6 ng of LPS equivalent per mg of product.

Source of the values: patent US8173133B2, “Acyl pseudodipeptides which carry a functionalized auxiliary arm” (OM Pharma, priority 1999, dated 2012).
